Experiment in all cases: Ambit kinase profiling, competition binding
One test concerns the target T1, PKAC-beta (Homo sapiens, UniProt P22694).
T1 construct: purchased Ambit Biosciences (KINOMEscan)
How it is done: (§1) Also included in the kinase profile are four isoforms of PKC (δ, ε, η, θ) and eight isoforms of CAMKs (CAMKIα, δ, γ; CAMKIIα, β, δ, γ; CAMK4).
(§2) The global kinase profiling experiment was performed by Ambit Biosciences.

The target of another test is T2, LATS1 (Homo sapiens, UniProt O95835).
T2 construct: purchased Ambit Biosciences (KINOMEscan)
T2 sequence (O95835 1-1130): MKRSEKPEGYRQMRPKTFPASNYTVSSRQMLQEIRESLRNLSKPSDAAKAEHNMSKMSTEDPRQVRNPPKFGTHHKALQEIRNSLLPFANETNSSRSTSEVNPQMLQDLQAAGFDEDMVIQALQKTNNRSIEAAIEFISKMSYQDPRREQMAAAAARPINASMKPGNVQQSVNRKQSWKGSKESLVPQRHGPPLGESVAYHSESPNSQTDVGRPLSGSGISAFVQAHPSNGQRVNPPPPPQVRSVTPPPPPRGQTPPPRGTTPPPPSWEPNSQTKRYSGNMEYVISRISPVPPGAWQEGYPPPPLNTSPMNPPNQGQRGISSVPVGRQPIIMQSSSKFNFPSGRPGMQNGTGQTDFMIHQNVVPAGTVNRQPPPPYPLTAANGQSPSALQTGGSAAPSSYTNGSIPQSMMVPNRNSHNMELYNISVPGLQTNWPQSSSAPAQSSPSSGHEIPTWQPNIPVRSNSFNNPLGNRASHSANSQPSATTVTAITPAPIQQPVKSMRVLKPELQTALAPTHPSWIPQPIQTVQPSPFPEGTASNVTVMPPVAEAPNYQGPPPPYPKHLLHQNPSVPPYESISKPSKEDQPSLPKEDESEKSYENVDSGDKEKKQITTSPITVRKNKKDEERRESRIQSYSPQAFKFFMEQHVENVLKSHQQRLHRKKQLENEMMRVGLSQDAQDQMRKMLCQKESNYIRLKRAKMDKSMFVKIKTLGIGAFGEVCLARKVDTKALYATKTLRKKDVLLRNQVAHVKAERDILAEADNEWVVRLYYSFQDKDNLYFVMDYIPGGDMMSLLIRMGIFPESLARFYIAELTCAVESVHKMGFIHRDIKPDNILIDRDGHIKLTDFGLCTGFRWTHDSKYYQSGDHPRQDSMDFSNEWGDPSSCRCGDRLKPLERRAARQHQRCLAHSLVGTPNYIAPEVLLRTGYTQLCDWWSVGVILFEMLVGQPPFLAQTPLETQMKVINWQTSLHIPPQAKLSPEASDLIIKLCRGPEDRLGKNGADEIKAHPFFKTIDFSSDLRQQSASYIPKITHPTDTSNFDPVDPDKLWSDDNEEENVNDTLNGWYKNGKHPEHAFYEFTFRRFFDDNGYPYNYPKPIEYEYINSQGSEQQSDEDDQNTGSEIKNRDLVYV
How it is done: as §1, §2

A further test addresses T3, TGFBR1 (Homo sapiens, UniProt P36897).
T3 construct: purchased Ambit Biosciences (KINOMEscan)
T3 sequence (P36897 34-503): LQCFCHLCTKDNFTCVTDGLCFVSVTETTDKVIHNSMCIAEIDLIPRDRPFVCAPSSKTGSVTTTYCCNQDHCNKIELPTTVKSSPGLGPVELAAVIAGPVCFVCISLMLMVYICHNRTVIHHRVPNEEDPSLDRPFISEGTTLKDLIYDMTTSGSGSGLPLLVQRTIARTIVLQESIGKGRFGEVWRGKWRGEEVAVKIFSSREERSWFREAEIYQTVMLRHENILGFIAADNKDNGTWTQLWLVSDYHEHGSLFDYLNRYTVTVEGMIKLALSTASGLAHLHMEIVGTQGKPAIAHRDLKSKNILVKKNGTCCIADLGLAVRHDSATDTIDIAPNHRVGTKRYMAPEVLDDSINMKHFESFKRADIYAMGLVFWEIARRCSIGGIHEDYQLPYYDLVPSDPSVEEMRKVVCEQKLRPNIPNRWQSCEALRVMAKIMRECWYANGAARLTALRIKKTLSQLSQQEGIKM
How it is done:
as §1, §2

Another test has as its target T4, CDK5 (Homo sapiens, UniProt Q00535).
T4 construct: purchased Ambit Biosciences (KINOMEscan)
On the procedure: as §1, §2

In a further test the target is T5, KIT(V559D) (Homo sapiens, UniProt P10721, V559D).
T5 construct: purchased Ambit Biosciences (KINOMEscan)
How it is done:
as §1, §2

In a further test the target is T6, MRCKB (Homo sapiens, UniProt Q9Y5S2).
T6 construct: purchased Ambit Biosciences (KINOMEscan)
On the procedure: as §1, §2

A further test has as its target T7, ACVR1 (Homo sapiens, UniProt Q04771).
T7 construct: purchased Ambit Biosciences (KINOMEscan)
T7 sequence (Q04771 21-509): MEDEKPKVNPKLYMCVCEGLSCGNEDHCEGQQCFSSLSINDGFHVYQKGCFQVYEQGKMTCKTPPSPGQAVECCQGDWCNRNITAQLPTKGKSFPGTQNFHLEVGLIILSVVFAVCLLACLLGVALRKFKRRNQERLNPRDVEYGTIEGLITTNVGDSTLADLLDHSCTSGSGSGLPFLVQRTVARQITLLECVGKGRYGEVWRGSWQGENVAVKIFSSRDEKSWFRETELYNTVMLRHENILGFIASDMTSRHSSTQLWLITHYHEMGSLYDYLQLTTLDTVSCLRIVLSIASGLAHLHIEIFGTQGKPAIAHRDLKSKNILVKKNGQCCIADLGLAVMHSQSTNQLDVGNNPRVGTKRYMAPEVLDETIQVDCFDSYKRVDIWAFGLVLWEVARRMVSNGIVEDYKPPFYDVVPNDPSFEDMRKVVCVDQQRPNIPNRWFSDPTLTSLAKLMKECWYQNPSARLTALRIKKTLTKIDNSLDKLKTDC
On the procedure:
as §1, §2

Another test addresses T8, CAMKIIγ (Homo sapiens, UniProt Q13555).
T8 construct: purchased Ambit Biosciences (KINOMEscan)
Particulars: for competition: CAMKIIγ, 10 µM. On the procedure: as §1, §2

The next test concerns the target T9, EGFR(L861Q) (Homo sapiens, UniProt P00533, L861Q).
T9 construct: purchased Ambit Biosciences (KINOMEscan)
Particulars: for % Competition: 10 µM. How it is done: as §1, §2

Molecules are shown by their SMILES. Read-outs that look alike come from different tables or passages of the source. Where only a bound is given, the exact number is not on record here.

T6 sequence (Q9Y5S2 whole entry): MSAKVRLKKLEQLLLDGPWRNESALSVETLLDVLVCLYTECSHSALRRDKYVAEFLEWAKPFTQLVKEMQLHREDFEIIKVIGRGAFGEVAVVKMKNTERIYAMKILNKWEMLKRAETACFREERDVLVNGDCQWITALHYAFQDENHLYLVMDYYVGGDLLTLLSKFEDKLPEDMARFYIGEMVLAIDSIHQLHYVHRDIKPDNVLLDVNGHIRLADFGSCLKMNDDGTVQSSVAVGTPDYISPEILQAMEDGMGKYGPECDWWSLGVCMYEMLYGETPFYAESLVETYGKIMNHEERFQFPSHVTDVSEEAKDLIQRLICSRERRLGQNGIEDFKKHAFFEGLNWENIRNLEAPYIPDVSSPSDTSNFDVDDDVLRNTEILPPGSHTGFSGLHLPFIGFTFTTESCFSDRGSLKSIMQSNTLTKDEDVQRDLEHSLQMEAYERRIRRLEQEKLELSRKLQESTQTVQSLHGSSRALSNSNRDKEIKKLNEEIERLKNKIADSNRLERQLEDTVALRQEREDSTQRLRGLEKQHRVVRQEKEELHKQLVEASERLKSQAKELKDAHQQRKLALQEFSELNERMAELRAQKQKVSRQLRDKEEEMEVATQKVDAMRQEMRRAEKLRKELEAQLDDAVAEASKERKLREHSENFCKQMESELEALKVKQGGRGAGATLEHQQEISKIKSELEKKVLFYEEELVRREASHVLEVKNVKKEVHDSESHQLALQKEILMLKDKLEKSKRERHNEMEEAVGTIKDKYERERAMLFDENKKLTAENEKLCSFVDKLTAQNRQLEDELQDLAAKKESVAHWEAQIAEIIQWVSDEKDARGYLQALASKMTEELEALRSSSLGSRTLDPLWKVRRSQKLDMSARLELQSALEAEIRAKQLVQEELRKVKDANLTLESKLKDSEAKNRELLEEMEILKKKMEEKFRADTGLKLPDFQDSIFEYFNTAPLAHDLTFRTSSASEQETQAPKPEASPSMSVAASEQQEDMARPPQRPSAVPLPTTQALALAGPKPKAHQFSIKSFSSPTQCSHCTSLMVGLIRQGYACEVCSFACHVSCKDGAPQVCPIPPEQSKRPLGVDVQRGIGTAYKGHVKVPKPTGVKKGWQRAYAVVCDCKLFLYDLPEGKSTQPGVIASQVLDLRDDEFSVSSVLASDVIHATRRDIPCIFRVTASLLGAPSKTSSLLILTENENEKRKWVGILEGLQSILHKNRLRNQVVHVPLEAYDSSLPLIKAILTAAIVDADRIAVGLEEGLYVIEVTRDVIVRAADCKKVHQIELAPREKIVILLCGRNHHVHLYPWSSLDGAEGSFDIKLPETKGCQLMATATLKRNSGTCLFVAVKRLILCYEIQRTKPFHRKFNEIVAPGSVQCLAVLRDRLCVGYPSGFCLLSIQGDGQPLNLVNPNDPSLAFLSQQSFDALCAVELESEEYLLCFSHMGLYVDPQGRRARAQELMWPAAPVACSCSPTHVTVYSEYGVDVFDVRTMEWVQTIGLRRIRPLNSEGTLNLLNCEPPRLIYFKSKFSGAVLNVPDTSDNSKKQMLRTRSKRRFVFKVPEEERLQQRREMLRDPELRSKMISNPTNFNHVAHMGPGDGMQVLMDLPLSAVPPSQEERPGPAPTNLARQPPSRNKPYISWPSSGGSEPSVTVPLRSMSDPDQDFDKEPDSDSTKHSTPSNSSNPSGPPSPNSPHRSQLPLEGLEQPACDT
T5 sequence (P10721 26-976 V559D): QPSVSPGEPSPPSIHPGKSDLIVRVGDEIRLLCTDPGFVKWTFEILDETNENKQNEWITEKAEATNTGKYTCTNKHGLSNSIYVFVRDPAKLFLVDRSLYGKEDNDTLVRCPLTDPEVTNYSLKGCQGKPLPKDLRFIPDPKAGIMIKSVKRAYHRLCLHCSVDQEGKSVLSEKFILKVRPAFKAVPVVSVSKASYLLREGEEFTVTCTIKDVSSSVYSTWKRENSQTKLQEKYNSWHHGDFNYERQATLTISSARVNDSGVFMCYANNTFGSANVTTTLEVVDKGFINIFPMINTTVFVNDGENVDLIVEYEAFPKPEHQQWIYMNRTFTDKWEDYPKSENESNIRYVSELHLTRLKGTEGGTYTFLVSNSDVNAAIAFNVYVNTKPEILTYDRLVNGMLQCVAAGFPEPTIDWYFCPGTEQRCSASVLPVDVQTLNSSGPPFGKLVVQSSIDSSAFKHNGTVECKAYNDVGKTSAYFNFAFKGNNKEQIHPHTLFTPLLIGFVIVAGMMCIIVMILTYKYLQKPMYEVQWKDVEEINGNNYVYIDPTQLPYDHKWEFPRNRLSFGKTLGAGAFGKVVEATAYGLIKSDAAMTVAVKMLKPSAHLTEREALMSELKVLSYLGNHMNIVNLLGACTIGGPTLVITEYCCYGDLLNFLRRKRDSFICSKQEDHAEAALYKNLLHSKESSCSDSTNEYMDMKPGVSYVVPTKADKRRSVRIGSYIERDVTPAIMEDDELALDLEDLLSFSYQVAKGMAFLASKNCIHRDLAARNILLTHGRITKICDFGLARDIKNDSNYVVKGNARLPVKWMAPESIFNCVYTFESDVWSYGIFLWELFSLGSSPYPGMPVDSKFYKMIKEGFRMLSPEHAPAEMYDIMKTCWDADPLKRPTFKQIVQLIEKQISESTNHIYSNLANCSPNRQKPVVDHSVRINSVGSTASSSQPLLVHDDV
T4 sequence (Q00535 whole entry): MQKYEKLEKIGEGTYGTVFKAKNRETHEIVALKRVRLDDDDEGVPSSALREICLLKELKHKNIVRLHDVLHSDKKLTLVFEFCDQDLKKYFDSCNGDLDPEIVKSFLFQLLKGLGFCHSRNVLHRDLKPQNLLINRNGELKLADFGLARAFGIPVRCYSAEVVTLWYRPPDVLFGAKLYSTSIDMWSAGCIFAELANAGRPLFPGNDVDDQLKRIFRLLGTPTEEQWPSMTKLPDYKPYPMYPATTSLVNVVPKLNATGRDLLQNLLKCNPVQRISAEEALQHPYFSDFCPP
T8 sequence (Q13555 whole entry): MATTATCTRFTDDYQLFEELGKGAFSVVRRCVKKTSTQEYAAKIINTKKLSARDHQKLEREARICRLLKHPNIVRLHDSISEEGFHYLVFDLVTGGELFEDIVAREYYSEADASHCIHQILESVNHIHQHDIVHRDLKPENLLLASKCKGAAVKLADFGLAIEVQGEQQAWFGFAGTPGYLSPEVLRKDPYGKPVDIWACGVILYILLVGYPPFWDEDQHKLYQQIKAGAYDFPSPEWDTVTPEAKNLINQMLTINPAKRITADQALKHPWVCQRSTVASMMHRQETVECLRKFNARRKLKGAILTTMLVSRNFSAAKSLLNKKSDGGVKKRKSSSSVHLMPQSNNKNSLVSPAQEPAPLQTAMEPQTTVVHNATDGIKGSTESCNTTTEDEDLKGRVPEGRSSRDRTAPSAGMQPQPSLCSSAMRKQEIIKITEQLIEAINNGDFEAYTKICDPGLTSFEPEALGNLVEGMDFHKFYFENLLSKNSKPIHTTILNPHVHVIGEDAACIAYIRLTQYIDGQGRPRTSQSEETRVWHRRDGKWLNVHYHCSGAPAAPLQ

`Fc1ccc(-c2c(-c3ccncc3)[nH]c3nccnc23)cc1` [Compound 122]: the inhibition at 10 µM at PKAC-beta (PKAC-beta, 10 µM, read-out: % Competition) turned out to be 67%; at LATS1 (LATS1, 10 µM, read-out: % Competition), 68%; on TGFBR1 (TGFBR1, 10 µM, read-out: % Competition), 91%; at CDK5 (CDK5, 10 µM, read-out: % Competition), 92%; at KIT(V559D) (KIT(V559D), 10 µM, read-out: % Competition) it was 75%; at MRCKB (MRCKB, 10 µM, read-out: % Competition), 98%. On ACVR1 (ACVR1, 10 µM, read-out: % Competition), the inhibition at 10 µM worked out at 92%. Besides, at CAMKIIγ, the competition was less than 50%. Besides, the “% Competition” value at EGFR(L861Q) was determined as 97%.
Regarding `Fc1ccc(-c2c(-c3ccncc3)[nH]c3nccnc23)cc1` [RO1155697-000-005], the inhibition at 10 µM on PKAC-beta (PKAC-beta, compound concentration 10 uM, read-out: Percent Competition) was determined as 67%; at LATS1 (LATS1, compound concentration 10 uM, read-out: Percent Competition), 68%; at TGFBR1 (TGFBR1, compound concentration 10 uM, read-out: Percent Competition), 91%; at CDK5 (CDK5, compound concentration 10 uM, read-out: Percent Competition) it was 92%; on KIT(V559D) (KIT(V559D), compound concentration 10 uM, read-out: Percent Competition), 75%; at MRCKB (MRCKB, compound concentration 10 uM, read-out: Percent Competition) it was 98%. In addition, the inhibition at 10 µM at ACVR1 (ACVR1, compound concentration 10 uM, read-out: Percent Competition) was 92%; at CAMKIIγ (CAMK2G, compound concentration 10 uM, read-out: Percent Competition) it was less than 50%. On EGFR(L861Q) (compound concentration 10 uM), the “Percent Competition” value came to 97%.
Regarding `CC(O)CNc1cc(-c2[nH]c3cccnc3c2-c2ccc(F)cc2)ccn1` (stereo not drawn) [Compound 140], the inhibition at 10 µM at PKAC-beta (read-out: % Competition), on LATS1 (read-out: % Competition), on TGFBR1 (read-out: % Competition), at CDK5 (read-out: % Competition), at KIT(V559D) (read-out: % Competition) and on MRCKB (read-out: % Competition) was less than 50% in each case. The inhibition at 10 µM on ACVR1 (read-out: % Competition) is less than 50%. This molecule also came in with a competition at CAMKIIγ of less than 50%. Moreover, the “% Competition” value on EGFR(L861Q) was 87%.

The values are drawn from paper PMC3445516 (PLoS ONE, 2012).
